Experimental data taken from patent publication US8299097B2, “Methods for treating inflammatory disorders” (The Brigham and Women's Hospital, Inc., priority 2008, dated 2012).

What was measured:
naïve BALB/c mice = test: Intranasal cys-LT in naïve BALB/c mice, lung histology; type: in vivo, mouse; conditions: 2 nmol, three successive days
Procedure: Thus, it was sought to determine whether either cys-LT amplified pulmonary […], BALB/c mice received inhalation challenges on three consecutive days with low-dose OVA (0.1%) for 30 minutes. Twelve hours before each challenge, the mice received intranasal LTD4, LTE4, or a buffer control. A cohort of mice treated with 1% OVA were maintained as a positive control. The mice were then euthanized, their BAL fluid collected, and their lungs examined histologically for evidence of inflammation and goblet cell metaplasia, a dominant pathologic signature of Th2-polarized mucosal inflammation. […] The extent of the cellularity and goblet cell responses of the LTE4-treated animals approached the levels of these parameters in the mice treated with 1% OVA.
(§1) 15 bronchovascular bundles of each mouse were evaluated.

[1] = tested on: CHO cells expressing CysLT1R, CysLT2R, or P2Y12 receptors; test: Calcium flux in Fura-2-AM-loaded CHO transfectants; type: cell-based, human; conditions: LTE4 500 nM, ADP 100 μM; ADP response reflects endogenous P2Y receptors
BALB/c mice = test: Cys-LT amplification of pulmonary inflammation in OVA sensitized, low-dose OVA challenged BALB/c mice; type: in vivo, mouse; conditions: intranasal cys-LT 12 h before each 0.1% OVA challenge
Procedure: FIG. 3. LTE4-mediated amplification of allergen-induced pulmonary inflammation. 3A. BAL fluid total cell counts (top) with percentages (middle) and total numbers (bottom) of eosinophils. Mice were sensitized twice with alum-precipitated ovalbumin (OVA). […] A separate sensitized group of mice were treated with 1% OVA as a positive control. 3B. Quantitative analysis if pulmonary inflammation, measured as the number of bronchovascular bundles with cellular infiltrates per 15 such bundles per mouse. 3C. Representative fields of H & E-stained lungs from mice from the indicated experimental groups. 3D. Morphometric analysis of goblet cell metaplasia, measured as the numbers of PAS-positive cells per mm of bronchial basal lamina. 3E. Representative PAS stains showing goblet cells (arrows). Results in 3A, 3B, and 3D are mean±SEM from 8-9 mice per group.
Thus, it was sought to determine whether either cys-LT amplified pulmonary inflammation induced by the inhalation of low-dose allergen in sensitized mice. Two weeks after sensitization with chicken egg ovalbumin (OVA) by intraperitoneal injection, BALB/c mice received inhalation challenges on three consecutive days with low-dose OVA (0.1%) for 30 minutes. Twelve hours before each challenge, the mice received intranasal LTD4, LTE4, or a buffer control. A cohort of mice treated with 1% OVA were maintained as a positive control. The mice were then euthanized, their BAL fluid collected, and their lungs examined histologically for evidence of inflammation and goblet cell metaplasia, a dominant pathologic signature of Th2-polarized mucosal inflammation. […] The extent of the cellularity and goblet cell responses of the LTE4-treated animals approached the levels of these parameters in the mice treated with 1% OVA.
Male BALB/c mice (6-8 weeks old) received intraperitoneal injections of reagent-grade chicken egg ovalbumin (OVA) (10 μg) precipitated with aluminum hydroxide ([…]) on days 0 and 7. […] Twelve hours after each dose, the mice were exposed to an aerosol of 0.1% OVA for 30 min delivered by an ultrasonic nebulizer. […] The mice were euthanized 24 hours after their third and final aerosol challenge. In some experiments, the mice received clopidogrel (500 μg/ml) in drinking water for 3 days before receiving the first intranasal dose of LTs. The treatment was continued throughout the procedure.
as §1

LAD2 cells = test: MIP-1β generation by LAD2 cells (ELISA); type: cell-based, human
Procedure: FIG. 2. Requirement for P2Y12 receptors in LTE4-mediated LAD2 cell activation. 2A. Calcium flux of LAD2 cells stimulated with the indicated agonists (500 nM) in the presence or absence of the P2Y12 receptor-selective antagonist 2-MeSAMP (100 μM). […] 2B. […] Cells sensitized overnight with IgE and challenged with anti-IgE were used as the positive control. 2C. […] Results in 2B and 2C are mean±SEM from three independent experiments each. 2D. Effect of shRNA-mediated knockdown of P2Y12 receptor mRNA expression by LAD2 cells.
FIG. 9. Effect of apyrase treatment on LT-mediated activation of LAD2 cells. 9A. […] Concentrations of MIP-1β were measured by ELISA. 9B. […] Lysates were resolved by SDS-PAGE and probed with the indicated antibodies against phospho- and total ERK. Results in 9A are the mean±½ range from two experiments, while 9B is representative of two experiments.
Pre-treatment of the LAD2 cells with 2-MesAMP blocked the LTE4-mediated increment in MIP-1β production by >50% (FIG. 2B). […] To exclude potential off-target effects of the inhibitors, samples of LAD2 cells were transfected with lentiviruses encoding a P2Y12 sequence-specific shRNA, a CysLT1R-specific shRNA, or an empty vector control before stimulation. […] LTE4- and LTD4-dependent production of PGD2 were abrogated by the knockdowns of P2Y12 and CysLT1R, respectively (FIG. 2C, bottom). Neither GPCR knockdown altered MIP-1β generation or PGD2 production in response to IgE-anti-IgE (FIG. 2C). LTE4-mediated MIP-1β generation (FIG. 9A) and ERK activation (FIG. 9B) were not altered by treatment of LAD2 cells with apyrase to degrade extracellular ADP.
The concentration of MIP-1β was measured by an ELISA (ENDOGEN®). PGD2 was quantitated by a PGD2-methoxylamine hydrochloride (PGD2-MOX) assay.

| Structure (SMILES) | lung histology (cellular influx, goblet cell metaplasia) (naïve BALB/c mice) | calcium flux [1] | BAL fluid eosinophilia (BALB/c mice) | bronchovascular inflammation (BALB/c mice) | goblet cell metaplasia (BALB/c mice) | MIP-1β generation (LAD2 cells; LTE4 100 and 500 nM, 6 h) | effect on MIP-1β response to LTD4 and LTE4 (LAD2 cells; 2-MesAMP 100 μM, MK571 1 μM) |
| --- | --- | --- | --- | --- | --- | --- | --- |
| CCCCC/C=C\C\C=C/C=C/C=C/[C@@H](SC[C@H](N)C(=O)O)[C@@H](O)CCCC(=O)O [LTE4] | no evidence of cellular influx or goblet cell metaplasia | failed to flux calcium | significantly enhanced | significantly enhanced | significantly enhanced | induced the generation of large amounts of MIP-1β | – |
| CCCCC/C=C\C\C=C/C=C/C=C/[C@@H](SC[C@H](N)C(=O)NCC(=O)O)[C@@H](O)CCCC(=O)O [LTD4] | no evidence of cellular influx or goblet cell metaplasia | – | did not increase | tended to slightly potentiate | tended to slightly potentiate | – | – |
| CN(C)C(=O)CCSC(SCCC(=O)O)c1cccc(/C=C/c2ccc3ccc(Cl)cc3n2)c1 (centres unmarked) [MK571] | – | – | – | – | – | – | suppressed the response to both ligands |
